Experiments:
[1] = literature (Asai 2005; Liu and Qian 2002); cited from earlier work
[2] = test system: scopolamine induced memory deficit; experiment: Scopolamine induced dementia, passive avoidance test; type: in vivo; conditions: Swiss albino mice, 2 mg/kg
Source text: Animals were randomized to their body weight (n=6-8). All animals were then habituated to experimental apparatus (Passive avoidance instrument of make—UGO Basile Biological Research Apparatus Italy) prior to the experiment. For habituation, animals were placed gently in the light compartment of the apparatus. After 5 seconds guillotine door was opened and animal allowed entering the dark compartment without giving the shock. Animals that took more than 100 seconds to enter the dark room were eliminated from the experiments. For acquisition trial the animals were placed in light compartment and allowed to enter the dark compartment through guillotine door. As soon as the animal entered to the dark compartment, door was closed and animal was delivered a foot shock (0.5 mA current) immediately for the duration of 5 seconds. Animals were then removed from apparatus after 20 seconds and placed temporarily in its home cage. Repeated the same procedure (keeping the gap between acquisition trials to 5 minutes) till the animal remained in the light compartment for consecutive 120 seconds. Retention was recorded at day 2 without shock in dark chamber. Increase in transfer latency time from light to dark chamber indicated learning in animals. Rivastigmine was used as positive control in this study. […] Percentage (%) change in transfer latency as compared with control on retention trial was calculated. […]

| SMILES | plasma half-life [1] [h] | effect on latency time (positive control) [2] |
| --- | --- | --- |
| CC(/C=C/C=C(\C)C(=O)O)=C\C=C\C=C(C)\C=C\C=C(/C)C(=O)O [crocetin] | ~2 |  |
| CCN(C)C(=O)Oc1cccc([C@H](C)N(C)C)c1 [rivastigmine] |  | significant reduction in latency time |

Source: patent US12023365B2, “Sustained release formulations of Crocus sativus” (COUNCIL OF SCIENTIFIC & INDUSTRIAL RESEARCH, priority 2017, dated 2024)
